Experimental data from patent US20080207632A1, “PROTEIN KINASE INHIBITORS” (SUPERGEN, INC., priority 2006, published 2008).
Where two headings read alike, the source gives them in different places.

What was measured:
[1] = test system: Panc-1 (pancreas); assay: in vitro cytotoxicity assay (Cell-Titer-Glo), Panc-1; format: cell-based; conditions: Homo sapiens
Method: (§1) To evaluate cell killing of cancer cell lines, an in vitro cytotoxicity assay was performed. The tumor cell lines used were purchased from the American Type Culture Collection, and are identified as follows: Panc-1 (pancreas), MiaPaCa-2 (pancreas), MCF-7 (breast), HT-29 (colon), U2-OS (osteosarcoma), OVCAR-3 (ovary), HepG2 (hepatocellular carcinoma) and TT (medullary thyroid). The assay utilized the Cell-Titer-Glo Non-Radioactive Cell Proliferation Assay (Promega Corp., Madison, Wis.). First the cells were cultured in RPMI 1640 medium (Cat# 21870-076, Invitrogen Corporation) supplemented with 300 mg/L L-glutamine, 100 units/ml penicillin, 100 μg/ml streptomycin and 10% fetal bovine serum. All the cell lines were incubated in a humidified incubator at 37° C. with 5% CO2 atmosphere.
(§2) Cells were plated at a density of 2000 to 10000 cells per well, depending on their growth rate, in 0.09 mL medium on day 0 in 96-well Microlite TCT microtiter plates (7418, Thermo Labsystems, Franklin, Mass.). On day 1, 10 μL of serial dilutions of the individual compounds were added to the plates in replicates of 3. After incubation for 4 days at 37° C. in a humidified incubator, the cells were lysed in the Cell-Titer-Glo reagent, which also contains luciferase enzyme. The luciferase reaction utilizes ATP released from lysed cells to produce light, the intensity of which is linearly related to the amount of ATP. Thus, the amount of light produced is a reflection of the number of cells remaining in the well after drug treatment. This luminescence was measured using a Luminoskan luminometer (Thermo Electron Corp., Vantaa, Finland) Data were expressed as the percentage of survival of control cells calculated from the luminescence corrected for background. The surviving percent of cells was determined by dividing the mean luminescence values of the treated wells by the mean luminescence values of the control and multiplying by 100.
as §1, with “Briefly,” for “To evaluate cell killing of cancer cell lines, an in vitro cytotoxicity assay was performed. The”, “thyroid), PC-3 (prostate) and A549 (lung).” for “thyroid).”
as §1, with “carcinoma), PC-3 (prostate),” for “carcinoma)”, “A549 (lung).” for “TT (medullary thyroid).”
(§3) Cells were plated at a density of 2000 to 10000 cells per well, depending on their growth rate, in 0.09 mL medium on day 0 in 96-well Microlite TCT microtiter plates (#7418, Thermo Labsystems, Franklin, Mass.). On day 1, 10 μL of serial dilutions of the individual compounds were added to the plates in replicates of 3. After incubation for 4 days at 37° C. in a humidified incubator, the cells were lysed in the Cell-Titer-Glo reagent, which also contains luciferase enzyme. […]

[2] = test system: MiaPaCa-2 (pancreas); assay: in vitro cytotoxicity assay (Cell-Titer-Glo), MiaPaCa-2; format: cell-based; conditions: Homo sapiens, MIA PaCa-2, 96 h, 4 days
Method: as §1, §2
as §1, with “Briefly,” for “To evaluate cell killing of cancer cell lines, an in vitro cytotoxicity assay was performed. The”, “thyroid), PC-3 (prostate) and A549 (lung).” for “thyroid).”
as §1, with “carcinoma), PC-3 (prostate),” for “carcinoma)”, “A549 (lung).” for “TT (medullary thyroid).”
as §3

[3] = test system: U2-OS (osteosarcoma); assay: in vitro cytotoxicity assay (Cell-Titer-Glo), U2-OS; format: cell-based; conditions: Homo sapiens, U2OS
Method: as §1, §2
as §1, with “Briefly,” for “To evaluate cell killing of cancer cell lines, an in vitro cytotoxicity assay was performed. The”, “thyroid), PC-3 (prostate) and A549 (lung).” for “thyroid).”
as §1, with “carcinoma), PC-3 (prostate),” for “carcinoma)”, “A549 (lung).” for “TT (medullary thyroid).”
as §3

[4] = test system: HepG2 (hepatocellular carcinoma); assay: in vitro cytotoxicity assay (Cell-Titer-Glo), HepG2; format: cell-based; conditions: Homo sapiens, HepG2, 96 h, 4 days
Method: as §1, §2
as §1, with “Briefly,” for “To evaluate cell killing of cancer cell lines, an in vitro cytotoxicity assay was performed. The”, “thyroid), PC-3 (prostate) and A549 (lung).” for “thyroid).”
as §1, with “carcinoma), PC-3 (prostate),” for “carcinoma)”, “A549 (lung).” for “TT (medullary thyroid).”
as §3

[5] = test system: TT (medullary thyroid); assay: in vitro cytotoxicity assay (Cell-Titer-Glo), TT; format: cell-based
Method: as §1, §2
as §1, with “Briefly,” for “To evaluate cell killing of cancer cell lines, an in vitro cytotoxicity assay was performed. The”, “thyroid), PC-3 (prostate) and A549 (lung).” for “thyroid).”
Cell culture-based assays can be used to evaluate the ability of compounds of the invention to inhibit one or more cellular activities, such as cancer cell growth and/or survival. Numerous cancer cell lines can be obtained from the American Type Culture Collection (ATCC) and other sources. Briefly, cells are seeded into 96-well, tissue-culture treated, opaque white plates (Thermo Electron, Vantaa, Finland), at between 5000 and 10000 cells per well, depending on the speed of cell proliferation, in 100 μl of appropriate growth medium (determined by the ATCC). Cells are then exposed to the appropriate concentration of drug or an equal amount of DMSO (drug diluent) and allowed to grow in its presence for 96 hours. Following this, 100 μl of Cell-Titer-Glo reagent (Promega, Inc., Madison, Wis.) is added to each well. Plates are then shaken for 2 minutes at room temperature to allow for cell lysis and incubated for 10 minutes to stabilize the luminescent signal. Similar to the Kinase-Glo assay reagent from Promega, this reagent contains both luciferase enzyme and its substrate luciferin. Luciferase, activated by ATP in the cell lysate, catalyzes the conversion of luciferin to oxyluciferin, a reaction which produces light. […]

[6] = test system: HT-29 Colorectal Xenograft; assay: HT-29 colorectal xenograft, route of administration (Example 70); format: in vivo, mice; conditions: intraperitoneal ALZET osmotic pump, 25 mg/kg/day over 14 days
Method: This study examined the effect of route of administration on tumor growth inhibition. Tumor bearing mice were treated with compound 2-3 intraperitoneally (ALZET osmotic pumps, delivering 25 mg/kg/day over 14 days) or intravenously (80 mg/kg/d on Days 1, 4 and 7). Because of difficulty in maintaining tail vein patency, this group of mice received subsequent dose intraperitoneally on Days 10, 11, 12 and 15. Compound 2-3 delivered continuously via the osmotic pump decreased tumor growth rate to 10.75 mm^3/d, compared with vehicle-treated tumor growth rate of 28.28 mm^3/d (see FIG. 5). Treated/Control ratio was 38%. […] However, after dosing was switched to IP, this effect was lost.

[7] = PANC-1, 96 h, Example 20, 4 days, read-out: Cell-based IC50 values Panc-1
[8] = Example 20, read-out: Cell-based IC50 values MiaPaCa-2
[9] = 96 h, Example 20, 4 days, read-out: Cell-based IC50 values U2-Os
[10] = Example 20, read-out: Cell-based IC50 values HepG2
[11] = 96 h, Example 20, 4 days, read-out: Cell-based IC50 values TT
[12] = PANC-1, 96 h, Table 9, 4 days, read-out: IC50 Panc-1
[13] = Table 9, read-out: IC50 MiaPaCa-2
[14] = 96 h, Table 9, 4 days, read-out: IC50 U2-OS

| SMILES | IC50 [1, 7] | IC50 [2, 8] | IC50 [3, 9] | IC50 [4, 10] | IC50 [5, 11] | other results |
| --- | --- | --- | --- | --- | --- | --- |
| CC(=O)NS(=O)(=O)c1ccc(NC(=S)N2CCN(c3ncnc4[nH]c5cc(C(F)(F)F)c(Cl)cc5c34)CC2)cc1 [Compound 1-1, 4-(6-Chloro-7-trifluoromethyl-9H-pyrimido[4,5-b]indol-4-yl)-piperazine-1-carbothioic acid (4-acetylsulfamoyl-phenyl)-amide] | 37.5 µM | 18.6 µM | 13.2 µM | 26 µM | 11 µM | IC50 ([1]; PANC-1, 96 h, Example 18, 4 days, read-out: calculated IC50 Panc-1): 40.7 µM; IC50 ([1]; PANC-1, Table 10, 96 hours, read-out: IC50 Panc1 (inhibit cell growth to 50% of untreated)): 40.7 µM; IC50 ([2]; Example 18, read-out: calculated IC50 MiaPaCa-2): 66.6 µM; IC50 ([3]; 96 h, Example 18, 4 days, read-out: calculated IC50 U2-OS): 25.9 µM; IC50 ([3]; Table 10, 96 hours, read-out: IC50 U2-Os (inhibit cell growth to 50% of untreated)): 25.9 µM; IC50 ([4]; Example 18, read-out: calculated IC50 HepG2): 7.83 µM; IC50 ([5]; 96 h, Example 18, 4 days, read-out: calculated IC50 TT): 51.7 µM; IC50 ([5]; Table 10, 96 hours, read-out: IC50 TT (inhibit cell growth to 50% of untreated)): 51.7 µM |
| COc1cc2[nH]c3ncnc(N4CCN(C(=S)Nc5ccc(S(=O)(=O)NC(C)=O)cc5)CC4)c3c2cc1OC [Compound 1-2, 4-(6,7-Dimethoxy-9H-pyrimido[4,5-b]indol-4-yl)-piperazine-1-carbothioic acid (4-acetylsulfamoyl-phenyl)-amide] | 198 µM | 173 µM | 71.7 µM | 295 µM | 64 µM |  |
| CC(=O)NS(=O)(=O)c1ccc(NC(=S)N2CCN(c3ncnc4[nH]c5ccc(Cl)cc5c34)CC2)cc1 [Compound 1-3, 4-(6-chloro-9H-pyrimido[4,5-b]indol-4-yl)-piperazine-1-carbothioic acid (4-acetylsulfamoyl-phenyl)-amide] | 35.8 µM | 22.1 µM | 20.8 µM | 49.6 µM | 13.2 µM |  |
| CC(=O)NS(=O)(=O)c1ccc(NC(=S)N2CCN(c3ncnc4[nH]c5cc(F)ccc5c34)CC2)cc1 [Compound 1-4] | 136 µM | 85.2 µM | 36.3 µM | 88 µM |  |  |
| COc1cc2c(cc1O)[nH]c1ncnc(N3CCN(C(=S)Nc4ccc(S(=O)(=O)NC(C)=O)cc4)CC3)c12 [Compound 1-8] |  |  |  | 81.8 µM |  |  |
| COc1cc2[nH]c3ncnc(N4CCN(C(=S)Nc5ccc(S(=O)(=O)N6CCOCC6)cc5)CC4)c3c2cc1OC [Compound 1-26] | 139 µM | 8.92 µM | 6.95 µM | 4.38 µM |  |  |
| COc1cc2[nH]c3ncnc(N4CCN(C(=S)Nc5ccc(NC(=O)C6CC6)cc5)CC4)c3c2cc1OC [Compound 1-34] | 125 µM | 9.82 µM | 27 µM | 81.9 µM | 99.1 µM |  |
| COc1cc2[nH]c3ncnc(N4CCN(C(=S)Nc5ccc(NC(C)=O)cc5)CC4)c3c2cc1OC [Compound 1-42] | 216 µM | 182 µM | 41.3 µM | 98.5 µM | 129 µM |  |
| COc1cc2[nH]c3ncnc(N4CCN(C(=S)Nc5ccc(S(N)(=O)=O)cc5)CC4)c3c2cc1OC [Compound 1-107] | 300 µM | 107 µM | 8.7 µM | 173 µM | 147 µM |  |
| COc1cc2[nH]c3ncnc(N4CCN(C(=S)Nc5ccc(S(C)(=O)=O)cc5)CC4)c3c2cc1OC [Compound 1-115] | 49.8 µM | 55.4 µM | 50.4 µM | 57.9 µM | 38.6 µM |  |
| COc1cc2[nH]c3ncnc(N4CCN(C(=S)Nc5ccc(S(=O)(=O)Nc6ccc(F)cc6)cc5)CC4)c3c2cc1OC [Compound 2-3, 4-(6,7-dimethoxy-9H-pyrimido[4,5-b]indol-4-yl)-N-(4-(N-(4-fluorophenyl)sulfamoyl)phenyl)piperazine-1-carbothioamide] |  |  |  |  |  | IC50 [1, 12]: 22.3 µM; IC50 [2, 13]: 7.19 µM; IC50 [3, 14]: 8.18 µM; IC50 ([4]; Table 9, read-out: IC50 HepG2): 9.02 µM; Treated/Control ratio [6]: 38%; tumor growth rate [6]: 10.75 mm^3/d |
| COc1ccc2c(c1)[nH]c1ncnc(N3CCN(C(=S)Nc4ccc(S(=O)(=O)Nc5ccc(F)cc5)cc4)CC3)c12 [Compound 2-5, 4-(7-methoxy-9H-pyrimido[4,5-b]indol-4-yl)-N-(4-(N-(4-fluorophenyl)sulfamoyl)phenyl)piperazine-1-carbothioamide] |  |  |  |  |  | IC50 [1, 12]: 10.7 µM; IC50 [2, 13]: 6.89 µM; IC50 [3, 14]: 8.49 µM; IC50 ([4]; Table 9, read-out: IC50 HepG2): 8 µM |
| Cc1ccc(NS(=O)(=O)c2ccc(NC(=S)N3CCN(c4ncnc5[nH]c6cc(Cl)c(N7CCOCC7)cc6c45)CC3)cc2)cc1 [Compound 2-9, 4-(7-chloro-6-morpholino-9H-pyrimido[4,5-b]indol-4-yl)-N-(4-(N-tolylsulfamoyl)phenyl)piperazine-1-carbothioamide] |  |  |  |  |  | IC50 [1, 12]: 85.2 µM; IC50 [2, 13]: 26.9 µM; IC50 [3, 14]: 8.56 µM; IC50 ([4]; Table 9, read-out: IC50 HepG2): 25.6 µM |
